What was measured:
Aspergillus niger = assay: Antifungal activity against Aspergillus niger MTCC 282 assessed as growth inhibition at 100 ug/mL after 30 hrs by cup plate method; format: functional; conditions: MTCC 282, 30 h, read-out: DIZ
Aspergillus fumigatus = assay: Antifungal activity against Aspergillus fumigatus MTCC 343 assessed as growth inhibition at 100 ug/mL after 30 hrs by cup plate method; format: functional; conditions: MTCC 343, 30 h, read-out: DIZ
Aspergillus flavus = assay: Antifungal activity against Aspergillus flavus MTCC 277 assessed as growth inhibition at 100 ug/mL after 30 hrs by cup plate method; format: functional; conditions: MTCC 277, 30 h, read-out: DIZ
Candida albicans = assay: Antifungal activity against Candida albicans MTCC 227 assessed as growth inhibition at 100 ug/mL after 30 hrs by cup plate method; format: functional; conditions: MTCC 227, 30 h, read-out: DIZ
Staphylococcus aureus = assay: Antibacterial activity against Staphylococcus aureus MTCC 096 assessed as growth inhibition at 100 ug/mL after 14 hrs by cup plate method; format: functional; conditions: MTCC 096, 14 h, read-out: DIZ
Bacillus subtilis = assay: Antibacterial activity against Bacillus subtilis MTCC 441 assessed as growth inhibition at 100 ug/mL after 14 hrs by cup plate method; format: functional; conditions: MTCC 441, 14 h, read-out: DIZ
[1] = tested on: Staphylococcus epidermidis; assay: Antibacterial activity against Staphylococcus epidermidis MTCC 435 assessed as growth inhibition at 100 ug/mL after 14 hrs by cup plate method; format: functional; conditions: MTCC 435, 14 h, read-out: DIZ
Escherichia coli = assay: Antibacterial activity against Escherichia coli MTCC 443 assessed as growth inhibition at 100 ug/mL after 14 hrs by cup plate method; format: functional; conditions: MTCC 443, 14 h, read-out: DIZ
Pseudomonas aeruginosa = assay: Antibacterial activity against Pseudomonas aeruginosa MTCC 424 assessed as growth inhibition at 100 ug/mL after 14 hrs by cup plate method; format: functional; conditions: MTCC 424, 14 h, read-out: DIZ
Salmonella typhi = assay: Antibacterial activity against Salmonella typhi MTCC 733 assessed as growth inhibition at 100 ug/mL after 14 hrs by cup plate method; format: functional, Salmonella enterica subsp. enterica serovar Typhi; conditions: Salmonella enterica, MTCC 733, 14 h; read-out: DIZ
Klebsiella pneumoniae = assay: Antibacterial activity against Klebsiella pneumoniae MTCC 432 assessed as growth inhibition at 100 ug/mL after 14 hrs by cup plate method; format: functional; conditions: MTCC 432, 14 h, read-out: DIZ

Row | Structure (SMILES) | zone of inhibition at 100 µg/mL (Aspergillus niger) [mm] | zone of inhibition at 100 µg/mL (Aspergillus fumigatus) [mm] | zone of inhibition at 100 µg/mL (Aspergillus flavus) [mm] | zone of inhibition at 100 µg/mL (Candida albicans) [mm] | zone of inhibition at 100 µg/mL (Staphylococcus aureus) [mm] | zone of inhibition at 100 µg/mL (Bacillus subtilis) [mm] | zone of inhibition at 100 µg/mL [1] [mm] | zone of inhibition at 100 µg/mL (Escherichia coli) [mm] | zone of inhibition at 100 µg/mL (Pseudomonas aeruginosa) [mm] | zone of inhibition at 100 µg/mL (Salmonella typhi) [mm] | zone of inhibition at 100 µg/mL (Klebsiella pneumoniae) [mm]
1 | Cc1cc(=O)oc2cc(OCCCCCCN=[N+]=[N-])ccc12 | 13.8 | 19 | 16.4 | 18.7 | 15.7 | 12.5 | 13.5 | 14.3 | 13 | 12.4 | 14.5
2 | Cc1cc(=O)oc2cc(OCCCCCCn3cc(CN4C(=O)c5ccccc5C4=O)nn3)ccc12 | 13.9 | 18.5 | 15.2 | 14.9 | 12.9 | 12.8 | 12.6 | 13.4 | 12.8 | 12.4 | 12.9
3 | Cc1cc(=O)oc2cc(OCCCCn3cc(CN4C(=O)c5ccccc5C4=O)nn3)ccc12 | 12.8 | 19 | 13.8 | 16.5 | 12.8 | 12.9 | 12.4 | 12.7 | 13.9 | 12.2 | 12.4
4 | Cc1cc(=O)oc2cc(OCc3cn(CCCCN4C(=O)c5ccccc5C4=O)nn3)ccc12 | 13.5 | 18.9 | 14.8 | 16.6 | 12.6 | 11.6 | 12.8 | 12.4 | 14 | 12.5 | 11.6
5 | Cc1cc(=O)oc2cc(OCCCCCCn3cc(CN4CCCCC4)nn3)ccc12 | 11.9 | 18.8 | 12.5 | 14 | 12.9 | 12.6 | 13.1 | 12.8 | 13.2 | 14.4 | 12.9
6 | Cc1cc(=O)oc2cc(OCCCCCCn3cc(CN4CCN(C)CC4)nn3)ccc12 | 14 | 18.4 | 14.4 | 13.6 | 12.5 | 12.4 | 14.6 | 14.7 | 13.9 | 13.1 | 12.4
7 | Cc1cc(=O)oc2cc(OCCCCCCn3cc(CN4CCOCC4)nn3)ccc12 | 12.9 | 16.9 | 16.8 | 13.5 | 11.7 | 15.4 | 13.4 | 14.4 | 14.5 | 13.5 | 14.6
